From patent US20210214341A1, “SUBSTITUTED PYRIDINYL AZETIDINONE DERIVATIVES FOR USE IN TREATING CANCER AND OTHER DISEASES” (The Board of Regents of the University of Texas System, priority 2018, published 2021)
Like-named read-outs stand apart in the source and are kept apart here.

Legend:
PANC-1 tumorspheres = experiment: 3D-tumorsphere formation assay; type: cell-based, human; details: for IC50: Homo sapiens, tumorspheres larger than 100 micrometers counted after 144 hrs
Description: Number of tumorspheres formed can be used to distinguish the efficacy of different anticancer drugs in a more physically acceptable method than 2D culture. Based on selectivity and toxicity towards PANC-1 cells in comparison to normal pancreatic ductal epithelial cells (Table D), six compounds (A, B, C, E, F, and G) were chosen for the 3D-tumorsphere formation assay. The assay was carried out by following the protocol developed by Johnson et al., (2013). PANC-1 cells (5000) were plated as single cells in Corning ultra-low attachment 24 well plates in 0.5 ml DMEM+10% FBS. The cells were grown in a humidified atmosphere of 5% CO2 for 168 hrs. 0.1 ml Media was added on 72nd and 144 hrs. The β-lactams were dissolved in DMSO and maintained at −20° C. On the day of assay, on the addition of media, the drugs were freshly diluted in media. The final concentrations of drugs were 0, 1 nM, 10 nM, 100 nM, 1 uM, 10 μM. After 144 hours the total number tumorspheres that were larger than 100 micrometers were counted in a field of 1 mm×1 mm at 10× magnification in a bright field microscope. The data was plotted and the IC50 value was calculated.
3D-tumorsphere formation assay is considered to be a fast and economical intermediary step between in vitro and in vivo biological evaluations. A tumorsphere is a solid, spherical formation developed from the proliferation of a single cancer stem/progenitor cell in 3D culture. These cells are easily distinguishable from single or aggregated as they appear to become fused together and individual cells cannot be appearing to become fused together and individual cells cannot be identified. The size can vary from less than 50 micrometers to 250 micrometers. The number of tumorspheres formed can be used to characterize the cancer stem cell population within different in vitro cultured cancer cell lines. The number of tumorspheres formed can also be used to distinguish the efficacy of different anticancer drugs in a more physically acceptable method than 2D culture. Based on selectivity and toxicity towards PANC-1 cells in comparison to normal pancreatic ductal epithelial cells (Table D), six compounds (A, B, C, E, F, and G) were chosen for the 3D-tumorsphere formation assay. The assay was carried out by following the protocol developed by Johnson et al., (2013). […] The below steps were followed to accomplish the assay. • 5000 PANC-1 cells were plated as single cells in Corning ultra-low attachment 24 well plates in 0.5 ml DMEM+10% FBS. • Cells were grown in a humidified atmosphere of 5% CO2 for 168 hrs. 0.1 ml Media was added on 72nd and 144 hrs. • Drugs were dissolved in DMSO and maintained at −20° C. On the day of assay, on the addition of media, the drugs were freshly diluted in media. • The final concentrations of drugs were 0, 1 nM, 10 nM, 100 nM, 1 μM, 10 μM. • After 144 hrs the total number tunorspheres that were larger than 100 micrometers were counted in a field of 1 mm×1 mm at 10× magnification in a bright field microscope. The data was plotted and the IC50 value was calculated.

[1] = test system: normal pancreatic ductal epithelial cells (ATCC CRL-4038); experiment: SRB (Sulforhodamine B) assay in normal pancreatic ductal epithelial cells; type: cell-based; details: Epithelial cell, read-out: IC50 (NPC)
Description: (§1) FIGS. 1A-1B show the IC50 curves of the twelve investigational β-lactams in pancreatic cancer cells PANC-1 (ATCC CRL-1469) and normal pancreatic ductal epithelial cells (ATCC CRL-4038). The GraphPad Prism software was used to process the results. The IC50 values were determined by SRB (Sulforhodamine B) assay following standard procedure. PANC-1 cells were plated in 96 well plates and treated with 1, 10, 100, 1000 and 10,000 nM of each of the drugs in triplicate for 72 hrs. Cells were fixed, washed and stained with SRB dye, the stained cells were washed, and the dye solubilized. It was read using a plate reader at 565 nm. The IC50 values were calculated assuming that the 10 μM sample has reached saturation. Following similar way, IC50 values were determined for normal pancreatic ductal epithelial cells.
(§2) As mentioned earlier, PANC-1 is referred to generically as the “gold standard of pancreatic cancers” representing as it does almost total resistance to GEM, the first line treatment currently used in clinical situations. Pancreatic cancer cells PANC-1 (ATCC CRL-1469) and normal pancreatic ductal epithelial cells (ATCC CRL-4038) were used in this study. The GraphPad Prism software was used to process the results. […] Cells were fixed, washed and stained with SRB dye, the stained cells were washed, and the dye solubilized. It was read using a plate reader at 565 nm. The IC50 values were calculated assuming that the 10 μM sample has reached saturation. Following similar way, IC50 values were determined for normal pancreatic ductal epithelial cells.

[2] = test system: pancreatic cancer cells PANC-1 (ATCC CRL-1469); experiment: SRB (Sulforhodamine B) assay in PANC-1 cells; type: cell-based; details: Homo sapiens, read-out: IC50 (PANC-1)
Description: as §1, §2

HS 766T = experiment: Cytotoxicity IC50 in HS 766T cells; type: cell-based; details: Homo sapiens, Hs766T; HS 766T cell line; read-out: IC50 (mean ± standard error)
Excerpt: (§3) B. Cytotoxicity Studies: Determination of IC50 Values (Single Run) in Capan-2, HPAC. HPAF-II, and HS766T Cell Lines
(§4) Capan-2, HPAC. HPAF-H, and HS766T. The compounds A, D, E, G, and H were chosen randomly, out of twelve β-laclam molecules, to carry out this evaluation.

HPAF-II = experiment: Cytotoxicity IC50 in HPAF-II cells; type: cell-based; details: Homo sapiens; HPAF-II cell line; read-out: IC50 (mean ± standard error)
Excerpt: as §3, §4

PANC-1 cells = experiment: Flow cytometric cell cycle analysis; type: cell-based, human; details: tested for 24, 48 and 72 hrs
Description: The noise was cleared. […] After 72 hrs all the cells (including floaters) were collected, the adhered cells were trypsinized and collected as well. The cells were then centrifuged in a 50 mL centrifuge tube. The pellet was washed with PBS and reconstituted in 500 μL PBS. The cells were then fixed in ice cold ethanol by adding the ethanol dropwise while gently vortexing the cells. Stored at 4° C. for overnight. The cells were then centrifuged, and the pellet reconstituted in Guava cell cycle reagent and analyzed in a Guava flow cytometer. A similar experiment was conducted with normal pancreatic ductal epithelial cells (NPC) and the drug treatment was done according to the IC50 values observed in the 2D assay conducted on them (Table E). Please note that 2N represents G0/G1 and 4N for G2 phases.
After 72 hrs all the cells (including floaters) were collected, the adhered cells were trypsinized and collected as well. The cells were then centrifuged in a 50 mL centrifuge tube. The pellet was washed with PBS and reconstituted in 500 μL PBS. The cells were then fixed in ice cold ethanol by adding the ethanol dropwise while gently vortexing the cells. […] The cells were then centrifuged, and the pellet reconstituted in Guava cell cycle reagent and analyzed in a Guava flowcytometer. […] First set of data with PANC-1 cells were analyzed by using FlowJo software, the noise was cleared (FIG. 3). […]

[3] = test system: pancreatic cancer cells PANC-1 (ATCC CRL-1469); details: cited from earlier work
[4] = 2D-culture, SRB, average of 3 runs
[5] = PANC-1, 2D-culture, SRB, 72 hrs, average of 3 runs

Question: With `Cc1ccc(S(=O)(=O)O[C@@H]2C(=O)N(c3cc4c5ccccc5ccc4c4ccccc34)[C@H]2c2ccc(F)cn2)cc1` (racemic) [(±)-Trans-N-(chrysen-6-yl)-2-(5-fluoropyridin-2-yl)-4-oxoazetidin-3-yl 4-methylbenzenesulfonate] as the compound, how does the melting point read?
Answer: Its melting point is 220 to 221 °C.

Question: Which melting point does the source give for `CS(=O)(=O)O[C@@H]1C(=O)N(c2cc3c4ccccc4ccc3c3ccccc23)[C@H]1c1ccc(F)cn1` (racemic) [(±)-Trans-N-(chrysen-6-yl)-2-(5-fluoropyridin-2-yl)-4-oxoazetidin-3-yl methanesulfonate] here?
Answer: The melting point was 253 to 254 °C.

Question: Which results are given for `N#CC1CN(S(=O)(=O)O[C@@H]2C(=O)N(c3cc4c5ccccc5ccc4c4ccccc34)[C@H]2c2ccc(F)cn2)C1` (racemic) [Compound C, (±)-Trans-N-(chrysen-6-yl)-2-(5-fluoropyridin-2-yl)-4-oxoazetidin-3-yl 3-cyanoazetidine-1-sulfonate]?
Answer: melting point: 212 to 213 °C; activity in 3D-tumorsphere formation assay compared with 2D-culture (PANC-1 tumorspheres): higher activity in 3D-tumorphere formation assay than 2D-culture; IC50 (PANC-1 tumorspheres): 0.00233 µM; IC50 [1, 4]: 0.0425 µM; IC50 [2, 5]: 0.00352 µM

Question: Which melting point does the source give for `O=C1[C@@H](OS(=O)(=O)N2CCCC2)[C@H](c2ccc(F)cn2)N1c1cc2c3ccccc3ccc2c2ccccc12` (racemic) [Compound I, (±)-Trans-N-(chrysen-6-yl)-2-(5-fluoropyridin-2-yl)-4-oxoazetidin-3-yl pyrrolidine-1-sulfonate] here?
Answer: Its melting point is 205 to 206 °C.

Question: And the IC50 [1, 4]?
Answer: Its IC50 is 0.201 µM.

Question: And the IC50 [2, 5]?
Answer: Its IC50 is 0.0586 µM.

Question: With `CC(C)N(C)S(=O)(=O)O[C@@H]1C(=O)N(c2cc3c4ccccc4ccc3c3ccccc23)[C@H]1c1ccc(F)cn1` (racemic) [E, (±)-Trans-N-(chrysen-6-yl)-2-(5-fluoropyridin-2-yl)-4-oxoazetidin-3-yl isopropyl(methyl)sulfamate] as the compound, how does the melting point read?
Answer: Its melting point is 166 to 167 °C.

Question: What about the “activity in 3D-tumorsphere formation assay compared with 2D-culture” value (PANC-1 tumorspheres) of the same compound?
Answer: Its value is “higher activity in 3D-tumorphere formation assay than 2D-culture”.

Question: And the IC50 (PANC-1 tumorspheres)?
Answer: Its IC50 is 0.00625 µM.

Question: What about the IC50 [1, 4] of the same compound?
Answer: Its IC50 is 0.424 µM.

Question: What about the IC50 (HS 766T) of the same compound?
Answer: The IC50 was 0.04 µM.

Question: And the IC50 [2, 5]?
Answer: Its IC50 is 0.00865 µM.

Question: And the IC50 (HPAF-II)?
Answer: The IC50 was 0.5 ± 0.16 µM.

Question: With `O=C1[C@@H](OS(=O)(=O)C2CC2)[C@H](c2ccc(F)cn2)N1c1cc2c3ccccc3ccc2c2ccccc12` (racemic) [F, (±)-Trans-N-(chrysen-6-yl)-2-(5-fluoropyridin-2-yl)-4-oxoazetidin-3-yl cyclopropanesulfonate] as the compound, how does the melting point read?
Answer: Its melting point is 180 to 181 °C.

Question: And the “activity in 3D-tumorsphere formation assay compared with 2D-culture” value (PANC-1 tumorspheres)?
Answer: The value was “higher activity in 3D-tumorphere formation assay than 2D-culture”.

Question: And the IC50 (PANC-1 tumorspheres)?
Answer: The IC50 was 0.0191 µM.

Question: And the IC50 [1, 4]?
Answer: The IC50 was 0.356 µM.

Question: What about the IC50 [2, 5] of the same compound?
Answer: Its IC50 is 0.0272 µM.

Question: With `CN1CCN(S(=O)(=O)O[C@@H]2C(=O)N(c3cc4c5ccccc5ccc4c4ccccc34)[C@H]2c2ccc(F)cn2)CC1` (racemic) [G, (±)-Trans-N-(chrysen-6-yl)-2-(5-fluoropyridin-2-yl)-4-oxoazetidin-3-yl 4-methylpiperazine-1-sulfonate] as the compound, how does the melting point read?
Answer: Its melting point is 146 to 147 °C.

Question: What about the IC50 [1, 4] of the same compound?
Answer: The IC50 was 0.00843 µM.

Question: What about the IC50 [2, 5] of the same compound?
Answer: The IC50 was 0.00269 µM.

Question: What about the IC50 (HPAF-II) of the same compound?
Answer: The IC50 was 1.18 ± 0.26 µM.

Question: Which melting point does the source give for `C[Si](C)(C)CCS(=O)(=O)O[C@@H]1C(=O)N(c2cc3c4ccccc4ccc3c3ccccc23)[C@H]1c1ccc(F)cn1` (racemic) [H, (±)-Trans-N-(chrysen-6-yl)-2-(5-fluoropyridin-2-yl)-4-oxoazetidin-3-yl 2-(trimethylsilyl)ethane-1-sulfonate] here?
Answer: The melting point was 210 to 211 °C.

Question: What about the IC50 [1, 4] of the same compound?
Answer: Its IC50 is 0.0485 µM.

Question: What about the IC50 (HS 766T) of the same compound?
Answer: The IC50 was 0.79 ± 0.12 µM.

Question: And the IC50 [2, 5]?
Answer: The IC50 was 0.0304 µM.

Question: And the IC50 (HPAF-II)?
Answer: The IC50 was 0.66 ± 0.12 µM.

Question: Which melting point does the source give for `CN(C)S(=O)(=O)O[C@@H]1C(=O)N(c2cc3c4ccccc4ccc3c3ccccc23)[C@H]1c1ccc(F)cn1` (racemic) [J, (±)-Trans-N-(chrysen-6-yl)-2-(5-fluoropyridin-2-yl)-4-oxoazetidin-3-yl dimethylsulfamate] here?
Answer: Its melting point is 196 to 198 °C.

Question: And the IC50 [1, 4]?
Answer: Its IC50 is 1.05 µM.

Question: And the IC50 [2, 5]?
Answer: Its IC50 is 0.212 µM.

Question: Which results are given for `O=C=NS(=O)(=O)O[C@@H]1C(=O)N(c2cc3c4ccccc4ccc3c3ccccc23)[C@H]1c1ccc(F)cn1` (racemic) [K, (±)-Trans-N-(chrysen-6-yl)-2-(5-fluoropyridin-2-yl)-4-oxoazetidin-3-yl sulfurisocyanatidate]?
Answer: IC50 [1]: 0.416 µM; IC50 ([2]; PANC-1, 72 h): 0.0296 µM

Question: For `Cc1ccc(S(=O)(=O)O[C@@H]2C(=O)N(c3cc4c5ccccc5ccc4c4ccccc34)[C@H]2c2ccc(F)cn2)cc1` (racemic) [L, (±)-Trans-N-(chrysen-6-yl)-2-(5-fluoropyridin-2-yl)-4-oxoazetidin-3-yl 4-methylbenzenesulfonate], which “time of maximum cell cycle blockage” value (PANC-1 cells) is on record?
Answer: Its value is 72 h.

Question: What about the IC50 (PANC-1 tumorspheres) of the same compound?
Answer: Its IC50 is 0.00457 µM.

Question: And the IC50 [1, 4]?
Answer: The IC50 was 0.0133 µM.

Question: And the IC50 [2, 5]?
Answer: Its IC50 is 0.00338 µM.

Question: Which IC50 ([3]; TX-262, from Banik et al., WO 2012/103456, read-out: IC50 (PANC-1)) does the source give for `CS(=O)(=O)O[C@H]1C(=O)N(c2cc3c4ccccc4ccc3c3ccccc23)C1c1ccccn1` (stereo partly drawn) [TX-262] here?
Answer: The IC50 was 0.43 µM.

Question: And the IC50 ([3]; TX-262, read-out: PANC-1 cell lines IC50)?
Answer: Its IC50 is 0.43 µM.
